Data from US6635479B1, “Hypothalamus-specific polypeptides” (The Scripps Research Institute, priority 1996, dated 2003).
Ends that are not written are not given here.

Assays:
[1] = system: synaptically coupled hippocampal dentate granule neurons in culture; assay: voltage clamp recording in cultured hippocampal dentate granule neurons; format: cell-based
[2] = body temperature by telemetry after intracerebroventricular infusion; format: in vivo, rats
Procedure: (§1) Synthetic, amidated hcrt2 peptide at different concentrations was infused intracerebroventricularly in rats and body temperature by was monitored telemetry. Stereotactic ablation studies have previously implicated the dorsal-lateral hypothalamus in feeding behavior, blood pressure, and central regulation of immune function, although precise nuclei have not been correlated with these activities. A threshold-type response was obtained in which, at the highest dose, 10 μg, body temperature dropped from 37.7 to 36.7 degrees Celsius over 30 minutes following administration, then recovered to normal over 2 hours. Food intake was monitored over 2 hours following administration and a 40% reduction in food intake was measured at a dose of 5 μg. […] The presumed target cells of hypocretin may not be very accessible by this unphysiological mode of administration. Local injection or intravenous administration of hypocretin might be more suitable for physiological studies.

[3] = food intake after intracerebroventricular infusion; format: in vivo, rats; conditions: 5 μg ICV; monitored over 2 hours following administration
Procedure: as §1

[4] = system: synaptically-coupled rat hypothalamic neurons; assay: voltage clamp recording of postsynaptic currents in cultured hypothalamic neurons; format: cell-based
Procedure: To test this hypothesis, 10-day cultures of synaptically-coupled rat hypothalamic neurons were prepared and postsynaptic currents were recorded under voltage clamp.
Rat hypothalamus from 18-day embryos was cultured for 10 days in vitro. The mediobasal hypothalamus was removed from embryonic day 18 Sprague Dawley rats. The tissue was enzymatically digested in a mild protease solution (10 U/ml papain and 0.2 mg/ml L-cysteine in Earle's balanced salt solution) for 30 minutes. Next, the tissue was pelleted, and the protease solution was removed. Tissue was then suspended in standard tissue culture medium (glutamate- and […] DMEM supplemented with 10% fetal bovine serum, 100 U/ml penicillin/streptomycin, and 6 gm/l glucose) and then triturated into a single-cell suspension. Cells were washed and pelleted an additional three times. The single-cell suspension was plated onto 22 mm^2 glass coverslips that had been coated with high-molecular-weight (540,000 Da) poly-D-lysine. High-density cultures (200,000/cm^2) were used for all experiments. Hypothalamic neural cultures were maintained in a Napco 3600 incubator (37 degree Celsius and 5% CO2) until they were ready for use. To limit non-neuronal cell proliferation cytosine arabinofuranoside (1 μM) was added to the tissue culture medium 1 day after plating.
Synaptically coupled hypothalamic neurons were recorded in voltage clamp with a whole cell pipette (holding potential=−60 mV). This recording is typical of 9 of 12 cells examined under these conditions. […] Inset boxes show higher resolution of the events indicated by the dotted line. Both boxes (in FIGS. 7A and B) were recorded with an identical delay after hcrt2 administration. A less mature hypothalamic neuron after 4 days of culture was unresponsive to 1 μM hcrt2 (FIG. 7B). Pipette solution contained 128 mM KMeSO4, 27 mM KCl, 0.4 mM EGTA, 1 mM ATP, and 0.5 mM GTP.

[5] = 1 μM applied to bath, 10 days in vitro, holding potential −60 mV
[6] = 1 μM, 10-day cultures, voltage clamp

With “hcrt2: synthetic peptide corresponding to amidated hcrt2; preprohypocretin residues about 70 to 96 (SEQ ID NO:10; unamidated form SEQ ID NO:9) (PGPPGLQGRLQRLLQANGNHAAGILTM-NH2)” the “response of hippocampal dentate granule neurons” value [1] was “no response”, the “body temperature after administration” value ([2]; 10 μg (highest dose) ICV, dropped from 37.7 over 30 minutes) was 36.7 degrees Celsius and the “time to recovery of body temperature to normal” value ([2]; 10 μg ICV) was 2 h. For the same substance, the “reduction in food intake” value [3] was 40%, the “cells showing the typical recording (increased PSC frequency)” value [4, 5] was 9 of 12 and the “increase in frequency of postsynaptic events (PSCs)” value [4, 5] was at most 400%. The “cells showing no response” value [4, 6] was 25%, the “neurons tested showing substantial, reversible increase in the frequency of postsynaptic currents” value [4, 6] was 75% and the “response of less mature hypothalamic neuron after 4 days of culture” value ([4]; 1 μM, 4 days of culture (FIG. 7B)) was “unresponsive”. For the same substance, the “frequency of PSCs after washout of the peptide” value ([4]; after washout of 1 μM) was “returned to normal baseline levels”, the “electrical responses in voltage clamp experiments (FIGS. 7A-7B legend)” value ([4]; application of 1 μg, isolated in vitro rat hypothalamic cells) was “produced electrical responses in adult but not immature neurons” and the “response of hypothalamic neurons in culture for only 3-5 days” value ([4]; neurons 3-5 days in culture) was “little response”.
